# According to article PMC6151695, “Novel Selective Estrogen Receptor Ligand Conjugates Incorporating Endoxifen-Combretastatin and Cyclofenil-Combretastatin Hybrid Scaffolds: Synthesis and Biochemical Evaluation” (Molecules : A Journal of Synthetic Chemistry and Natural …, 2017):
# Where “and” joins values, the source holds several entries; their conditions need not be identical. Equal entries are not always repeated. Entries after “also recorded” stand apart in the source; their conditions may differ. Where two headings read alike, the source gives them in different places.
# Experiments:
# [1] = tested on: MCF-7 human breast cancer cell line; test: Alamar Blue assay for antiproliferative effects; format: cell-based; details: for IC50: read-out: IC50 (μM), antiproliferative effects
# [2] = tested on: MCF-7 cells; test: Flow cytometry (propidium iodide) cell cycle and apoptosis analysis in MCF-7; format: cell-based, human; details: MCF-7, 10 µM, 72 h
# Method: Flow cytometry with propidium iodide stained cells was carried out to analyse the percentage of cells in each stage of the cell cycle and the number of apoptotic or dead cells. Samples were treated for 72 h at 10 µM. […] […].
# MCF-7 cells were seeded at a density of 5 × 10^4 cells/well in a 12-well plate and treated with the indicated compounds for 72 h. Samples were then centrifuged at 650× g for 5 min and resuspended in 100 µL ice-cold PBS. Ice-cold 70% (v/v) ethanol (1 mL) was then added to fix the samples overnight at 4 °C. Samples were subsequently centrifuged at 800× g for 10 min and resuspended in 200 µL PBS. RNase A (12.5 µL of 10 mg/mL) and propidium iodide (37.5 µL of 1 mg/ mL) were added to samples which were then incubated for 30 min at 37°C. Cell cycle analysis was performed at 488 nm using a FACS Calibur flow cytometer (Becton Dickinson, Franklin Lakes, NJ, USA). The Macintosh-based application CellQuest was then used to analyse the data of 10,000 gated cells once cell debris had been excluded. Data points represent the mean ± S.E.M. of three independent experiments.
# [3] = Homo sapiens, MCF7, 72 h, MCF-7, 72 h, Alamar Blue
# [4] = Homo sapiens, MCF7, read-out: growth inhibition
# [5] = Homo sapiens, MCF7, MCF-7, at 1 μM, read-out: growth inhibition
Structure (SMILES),"IC50 [1, 3]",also measured
"CCC(=C(c1ccc(O)cc1)c1ccc(OCCN(C)C(=O)/C(=C/c2ccc(OC)c([N+](=O)[O-])c2)c2cc(OC)c(OC)c(OC)c2)cc1)c1ccccc1 (mixture of isomers) [Compound 3a, (E/Z)-N-(2-(4-((E)-1-(4-Hydroxyphenyl)-2-phenylbut-1-en-1-yl)phenoxy)ethyl)-3-(4-methoxy-3-nitro-phenyl)-N-methyl-2-(3,4,5-trimethoxyphenyl)acrylamide]",,"IC50 ([1]; Homo sapiens, MCF7, 72 h): > 50 µM"
"CCC(=C(c1ccc(O)cc1)c1ccc(OCCN(C)C(=O)/C(=C/c2cc(OC)c(OC)c(OC)c2)c2cc(OC)cc(OC)c2)cc1)c1ccccc1 (mixture of isomers) [Compound 3b, (E/Z)-2-(3,5-Dimethoxyphenyl)-N-(2-(4-((Z)-1-(4-hydroxyphenyl)-2-phenylbut-1-en-1-yl)phenoxy)ethyl)-N-methyl-3-(3,4,5-trimethoxyphenyl)acrylamide]",> 50 µM,
"CCC(=C(c1ccc(O)cc1)c1ccc(OCCN(C)C(=O)/C(=C/c2cc(OC)c(OC)c(OC)c2)c2cc(OC)c(OC)c(OC)c2)cc1)c1ccccc1 (mixture of isomers) [Compound 3c, (E/Z)-N-(2-(4-((Z)-1-(4-Hydroxyphenyl)-2-phenylbut-1-en-1-yl)phenoxy)ethyl)-N-methyl-2,3-bis(3,4,5-trimethoxyphenyl)acrylamide]",> 50 µM,
"CCC(=C(c1ccc(O)cc1)c1ccc(OCCN(C)C(=O)/C(=C/c2ccc(OC)c(O)c2)c2cc(OC)cc(OC)c2)cc1)c1ccccc1 (mixture of isomers) [Compound 3d, (E/Z)-2-(3,5-Dimethoxyphenyl)-3-(3-hydroxy-4-methoxyphenyl)-N-(2-(4-((Z)-1-(4-hydroxyphenyl)-2-phenylbut-1-en-1-yl)phenoxy)ethyl)-N-methylacrylamide]",> 50 µM,
"CCC(=C(c1ccc(O)cc1)c1ccc(OCCN(C)C(=O)/C(=C/c2ccc(O)c(O)c2)c2cc(OC)c(OC)c(OC)c2)cc1)c1ccccc1 (mixture of isomers) [Compound 3e, (E/Z)-3-(3,4-Dihydroxyphenyl)-N-(2-(4-((Z)-1-(4-hydroxyphenyl)-2-phenylbut-1-en-1-yl)phenoxy)ethyl)-N-methyl-2-(3,4,5-trimethoxyphenyl)acrylamide]",> 50 µM,
"CCC(=C(c1ccc(O)cc1)c1ccc(OCCN(C)C(=O)/C(=C/c2cccc(O)c2)c2cc(OC)c(OC)c(OC)c2)cc1)c1ccccc1 (mixture of isomers) [Compound 3f, (E/Z)-3-(3-Hydroxyphenyl)-N-(2-(4-((Z)-1-(4-hydroxyphenyl)-2-phenylbut-1-en-1-yl)phenoxy)ethyl)-N-methyl-2-(3,4,5-trimethoxyphenyl)acrylamide]",> 50 µM,
"CCC(=C(c1ccc(O)cc1)c1ccc(OCCN(C)C(=O)/C(=C/c2ccc(OC)c(OC)c2)c2cc(OC)c(OC)c(OC)c2)cc1)c1ccccc1 (mixture of isomers) [Compound 3g, (E/Z)-3-(3,4-Dimethoxyphenyl)-N-(2-(4-((Z)-1-(4-hydroxyphenyl)-2-phenylbut-1-en-1-yl)phenoxy)ethyl)-N-methyl-2-(3,4,5-trimethoxyphenyl)acrylamide]",> 50 µM,
"CCC(=C(c1ccc(O)cc1)c1ccc(OCCN(C)C(=O)/C(=C/c2ccc(OC)c(OC)c2OC)c2cc(OC)c(OC)c(OC)c2)cc1)c1ccccc1 (mixture of isomers) [Compound 3h, (E/Z)-N-(2-(4-((Z)-1-(4-Hydroxyphenyl)-2-phenylbut-1-en-1-yl)phenoxy)ethyl)-N-methyl-3-(2,3,4-tri-methoxyphenyl)-2-(3,4,5-trimethoxyphenyl)acrylamide]",> 50 µM,
"CCC(=C(c1ccc(O)cc1)c1ccc(OCCN(C)C(=O)/C(=C/c2cc(OC)c(O)c(OC)c2)c2cc(OC)c(OC)c(OC)c2)cc1)c1ccccc1 (mixture of isomers) [Compound 3j, (E/Z)-3-(4-Hydroxy-3,5-dimethoxyphenyl)-N-(2-(4-((Z)-1-(4-hydroxyphenyl)-2-phenylbut-1-en-1-yl)-phenoxy)ethyl)-N-methyl-2-(3,4,5-trimethoxyphenyl)acrylamide]",11.8 µM,"IC50 ([1]; MCF-7, 72 h, Alamar Blue): 11.8 µM"
"CCC(=C(c1ccc(O)cc1)c1ccc(OCCN(C)C(=O)/C(=C/c2ccc(C)s2)c2cc(OC)c(OC)c(OC)c2)cc1)c1ccccc1 (mixture of isomers) [Compound 3l, (E/Z)-N-(2-(4-((E)-1-(4-Hydroxyphenyl)-2-phenylbut-1-en-1-yl)phenoxy)ethyl)-N-methyl-3-(5-methyl-thiophen-2-yl)-2-(3,4,5-trimethoxyphenyl)acrylamide]",> 50 µM,
"CC/C(=C(\c1ccc(O)cc1)c1ccc(OCCN(C)C(=O)C=Cc2ccc(OC)c(O)c2)cc1)c1ccccc1 (mixture of isomers) [Compound 5a, (E/Z)-3-(3-Hydroxy-4-methoxyphenyl)-N-(2-(4-((Z)-1-(4-hydroxyphenyl)-2-phenylbut-1-en-1-yl)phenoxy)-ethyl)-N-methylacrylamide]",,"IC50 ([1]; MCF-7, 72 h, Alamar Blue): 51.3 µM"
"CCC(=C(c1ccc(O)cc1)c1ccc(OCCN(C)C(=O)CCc2ccc(OC)c(O)c2)cc1)c1ccccc1 (mixture of isomers) [Compound 5b, (E/Z)-3-(3-hydroxy-4-methoxyphenyl)-N-(2-(4-(1-(4-hydroxyphenyl)-2-phenylbut-1-en-1-yl)phenoxy)ethyl)-N-methylpropanamide]",,"IC50 ([1]; MCF-7, 72 h, Alamar Blue): 46.7 µM and 46.8 µM"
"COc1ccc(/C(=C\c2cc(OC)c(OC)c(OC)c2)C(N)=O)cc1 [Compound 3n, (E)-2-(4-Methoxyphenyl)-3-(3,4,5-trimethoxyphenyl)acrylamide]",,"inhibition at 1 µM [1, 4]: 20%"
"CCN(CC)C(=O)/C(=C/c1ccc(OC)c(O)c1)c1cc(OC)c(OC)c(OC)c1 [Compound 3o, (E)-N,N-diethyl-3-(3-hydroxy-4-methoxyphenyl)-2-(3,4,5-trimethoxyphenyl) acrylamide]",,"inhibition at 1 µM [1, 4]: 16%"
"COc1ccc(/C=C(/C(N)=O)c2cc(OC)c(OC)c(OC)c2)cc1 [Compound 3p, (E)-3-(4-Methoxyphenyl)-2-(3,4,5-trimethoxyphenyl)acrylamide]",,"inhibition at 1 µM [1, 5]: 60%"
"CCN(CC)C(=O)/C(=C/c1ccc(OC)cc1)c1cc(OC)c(OC)c(OC)c1 [Compound 3q, (E)-N,N-Diethyl-3-(4-methoxyphenyl)-2-(3,4,5-trimethoxyphenyl)acrylamide]",,"inhibition at 1 µM [1, 5]: 25%"
"COc1ccc(/C=C(/C(=O)N(C)CCOc2ccc(C(=C3CCCC3)c3ccc(O)cc3)cc2)c2cc(OC)c(OC)c(OC)c2)cc1O [Compound 13a, (E)-N-(2-(4-(Cyclopentylidene(4-hydroxyphenyl)methyl)phenoxy)ethyl)-3-(3-hydroxy-4-methoxyphenyl)-N-methyl-2-(3,4,5-trimethoxyphenyl)acrylamide]",,"IC50 ([1]; Homo sapiens, MCF7, 72 h): 1.38 µM"

# More lines, main results first:
"IC50 [1, 3]",Structure (SMILES),also measured
> 100 µM,"CCC(=C(c1ccc(O)cc1)c1ccc(OCCN(C)C(=O)/C=C/c2cc(OC)c(OC)c(OC)c2)cc1)c1ccccc1 (mixture of isomers) [Compound 5c, (E/Z)-N-(2-(4-((Z)-1-(4-Hydroxyphenyl)-2-phenylbut-1-en-1-yl)phenoxy)ethyl)-N-methyl-3-(3,4,5-tri-methoxyphenyl)acrylamide]","IC50 ([1]; MCF-7, 72 h, Alamar Blue): > 50 µM"
> 100 µM,"CCC(=C(c1ccc(O)cc1)c1ccc(OCCN(C)C(=O)CCc2cc(OC)c(OC)c(OC)c2)cc1)c1ccccc1 (mixture of isomers) [Compound 5d, N-(2-(4-((E/Z)-1-(4-Hydroxyphenyl)-2-phenylbut-1-enyl)phenoxy)ethyl)-3-(3,4,5-trimethoxyphenyl)-N-methylpropanamide]","IC50 ([1]; MCF-7, 72 h, Alamar Blue): > 50 µM"
3.09 µM,"CNCCOc1ccc(C(=C2CCCC2)c2ccc(O)cc2)cc1 [Compound 11a, 4-(Cyclopentylidene(4-(2-(methylamino)ethoxy)phenyl)methyl)phenol]",
4.78 µM,"CNCCOc1ccc(C(=C2CCCCC2)c2ccc(O)cc2)cc1 [Compound 11b, 4-(Cyclohexaneylidene(4-(2-(methylamino)ethoxy)phenyl)methyl)phenol]",
2.01 µM,"COc1ccc(/C=C(/C(=O)N(C)CCOc2ccc(C(=C3CCCCC3)c3ccc(O)cc3)cc2)c2cc(OC)c(OC)c(OC)c2)cc1O [Compound 13b, (E)-N-(2-(4-(Cyclohexaneylidene(4-hydroxyphenyl)methyl)phenoxy)ethyl)-3-(3-hydroxy-4-methoxyphenyl)-N-methyl-2-(3,4,5-trimethoxyphenyl)acrylamide]",
2.5 µM,"COc1ccc(/C=C(/C(=O)N(C)CCOc2ccc(C(=C3CCCCCC3)c3ccc(O)cc3)cc2)c2cc(OC)c(OC)c(OC)c2)cc1O [Compound 13c, (E)-N-(2-(4-(Cycloheptylidene(4-hydroxyphenyl)methyl)phenoxy)ethyl)-3-(3-hydroxy-4-methoxyphenyl)-N-methyl-2-(3,4,5-trimethoxyphenyl)acrylamide]",apoptosis [2]: 20%
> 50 µM,"CCC(=C(c1ccccc1)c1ccc(OCCN(C)C(=O)CCC(=O)O)cc1)c1ccccc1 [Compound 14a, N-{2-[4-(1,2-Diphenylbut-1-enyl)phenoxy]ethyl}-N-methylsuccinamic acid]",antiproliferative activity (in words) ([1]; MCF-7): very low antiproliferative activity; also recorded: no significant antiproliferative activity
